Test results taken from US6136825A, “Sulfonamide compounds having 5-HT receptor activity” (Knoll Aktiengesellschaft, priority 1996, dated 2000).

Assays:
[1] = target: T1, D2-like dopamine receptors (Rattus norvegicus, UniProt P61169); assay: inhibition of tritiated (S)-sulpiride binding to D2-like dopamine receptors, rat striatal tissue; set-up: species or system male Charles River CD rats; conditions: for Ki: 4° C., 40 minutes, pH 7.7; for inhibition at 1 µM: at 10^-6 M, read-out: % displacement of specific binding, D2-like
T1 construct: Striatal tissue from the brains of male Charles River CD rats; from tissue; host or cells: rat striatum (male Charles River CD rats), crude membrane pellet
T1 sequence (P61169 whole entry): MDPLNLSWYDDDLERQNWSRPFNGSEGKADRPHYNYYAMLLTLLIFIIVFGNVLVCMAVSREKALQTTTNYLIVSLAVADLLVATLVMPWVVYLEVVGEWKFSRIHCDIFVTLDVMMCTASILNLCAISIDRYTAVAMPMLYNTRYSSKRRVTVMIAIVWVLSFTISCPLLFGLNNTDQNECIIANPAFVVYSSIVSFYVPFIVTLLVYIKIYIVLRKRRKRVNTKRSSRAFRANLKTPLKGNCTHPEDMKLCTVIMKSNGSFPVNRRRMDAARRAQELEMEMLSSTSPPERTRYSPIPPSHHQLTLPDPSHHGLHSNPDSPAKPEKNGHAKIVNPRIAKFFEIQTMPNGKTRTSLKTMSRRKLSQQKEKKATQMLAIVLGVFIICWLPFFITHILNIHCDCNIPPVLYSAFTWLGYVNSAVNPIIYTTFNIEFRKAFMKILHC
Procedure: Striatal tissue from the brains of male Charles River CD rats weighing between 140-250 g were homogenised in ice-cold 50 mM Tris-HCl buffer (pH 7.7 when measured at 25° C.) and centrifuged at 40,000 g for 10 minutes. The pellet was resuspended in Tris salts buffer (50 mM Tris-HCl buffer containing 120 mM NaCl, 5 mM KCl, 2 mM CaCl2 and 1 mM MgCl2 with the addition of 6 mM ascorbic acid; pH 7.7 when measured at 25° C.), and again centrifuged at 40,000 g for 10 minutes. The final pellet was stored at -80° C. Before each test the pellet was resuspended in Tris salts buffer (equivalent to 2 mg wet weight of tissue/ml). Aliquots (720 μl; equivalent to 1.44 mg wet weight of tissue/tube) of this suspension were then added to tubes containing the ligand (40 μl; 1 nM) and Tris salts buffer (40 μl; total binding) or spiroperidol (40 μl; 10 nM; non-specific binding) or test compound (40 μl; at a single concentration of 10^-6 M or at 6 concentrations ranging from 10^-11 -10^-4 M). The ligand was tritiated (S)-sulpiride and the mixture was incubated at 4° C. for 40 minutes before the incubation was terminated by rapid filtration.
The filters were washed with ice-cold Tris-HCl buffer and dried. The filters were punched out in to vials, scintillation fluid added and were left for about 20 hours before being counted by scintillation spectrophotometry. The percentage displacement of specific binding of the tritiated ligand was calculated for the single concentration (10^-6 M) of test compound. Displacement curves were then produced over a range of concentrations for those compounds which displaced ≥50% of specific binding of the tritiated ligand at 10^-6 M. The concentration which gave a 50% inhibition of specific binding (IC50) was obtained from the curve. The inhibition coefficient Ki was then calculated using the formula [formula] in which [ligand] is the concentration of the tritiated ligand used and KD is the equilibrium dissociation constant for the ligand.

[2] = target: T2, 5-HT1A (Rattus norvegicus, UniProt P19327); assay: inhibition of tritiated ligand ([3H]8-OH-DPAT) binding to 5-HT1A receptors, rat hippocampal tissue; set-up: species or system male Charles River CD rats; conditions: at 10^-6 M, read-out: % displacement of specific binding, 5-HT1A
T2 construct: Hippocampal tissue from the brains of male Charles River CD rats; from tissue; host or cells: rat hippocampus (male Charles River CD rats), crude membrane pellet
T2 sequence (P19327 1-422): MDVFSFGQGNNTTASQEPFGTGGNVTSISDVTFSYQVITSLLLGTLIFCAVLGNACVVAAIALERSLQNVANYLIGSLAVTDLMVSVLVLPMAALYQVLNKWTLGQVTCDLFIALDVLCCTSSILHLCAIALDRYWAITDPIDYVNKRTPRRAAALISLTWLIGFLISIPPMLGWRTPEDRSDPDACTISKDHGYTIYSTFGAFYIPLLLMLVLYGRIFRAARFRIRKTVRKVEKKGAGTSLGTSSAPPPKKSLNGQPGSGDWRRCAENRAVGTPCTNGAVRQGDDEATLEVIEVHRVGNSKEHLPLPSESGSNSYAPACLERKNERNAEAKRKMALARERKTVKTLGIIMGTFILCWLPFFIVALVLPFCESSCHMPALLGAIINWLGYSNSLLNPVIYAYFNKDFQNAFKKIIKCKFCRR
Procedure: Hippocampal tissue from the brains of male Charles River CD rats weighing between 150-250 g were homogenised in ice-cold 50 mM Tris-HCl buffer (pH 7.7) when measured at 25° C., 1:40 w/v) and centrifuged at 30,000 g at 4° C. for 10 minutes. The pellet was rehomogenised in the same buffer, incubated at 37° C. for 10 minutes and centrifuged at 30,000 g at 4° C. for 10 minutes. The final pellet was resuspended in 50 mM Tris-HCl buffer (pH 7.7) containing 4 mM CaCl2, 0.1% L-ascorbic acid and 10 μM pargyline hydrochloride (equivalent to 6.25 mg wet weight of tissue/ml) and used immediately in the binding assay. Aliquots (400 μl; equivalent to 2.5 mg wet weight of tissue/tube) of this suspension were added to tubes containing the ligand (50 μl; 2 nM) and distilled water (50 μl; total binding) or 5-HT (50 μl; 10 μM; non-specific binding) or test compound (50 μl; at a single concentration of 10^-6 M or at 10 concentrations ranging from 10^-11 -10^-3 M). The ligand was [^3 H]8-hydroxy-2-(dipropylamino)tetralin ([^3 H]8-OH-DPAT) and the mixture was incubated at 25° C. for 30 minutes before the incubation was terminated by rapid filtration.
The filters were washed with ice-cold Tris-HCl buffer and dried. The filters were punched out into vials, scintillation fluid added and radioactivity determined by liquid scintillation counting. The percentage displacement of specific binding of the tritiated ligand was calculated for the single concentration (10^-6 M) of test compound. Displacement curves were then produced for those compounds which displaced ≥50% of specific binding of the tritiated ligand at 10^-6 M using a range of concentrations of the compound. The concentration which gave 50% inhibition of specific binding (IC50) was obtained from the curve. The inhibition coefficient Ki was then calculated using the formula [formula] in which [ligand] is the concentration of the tritiated ligand used and KD Is the equilibrium dissociation constant for the ligand.

Row | SMILES | Ki [1] | inhibition at 1 µM [2] | inhibition at 1 µM [1]
1 | CCN(CC)c1cccc2c(S(=O)(=O)NCC3CCN(C[C@H]4COc5ccc(Cl)cc5O4)CC3)cccc12 [Example 23, (S)-N-{[1-(7-Chloro-1,4-benzodioxan-2-ylmethyl)-4-piperidyl]methyl}-5-(diethylamino)naphthalene-1-sulphonamide] | – | 82% | 83%
2 | O=S(=O)(NCC1CCN(C[C@H]2COc3ccc(Cl)cc3O2)CC1)c1ccc(C(F)(F)F)cc1 [Example 24, (S)-N-{[1-(7-Chloro-1,4-benzodioxan-2-ylmethyl)-4-piperidyl]methyl}-4-trifluoromethylbenzenesulphonamide] | 533 nM | 90% | –
3 | O=[N+]([O-])c1cccc(S(=O)(=O)NCC2CCN(C[C@H]3COc4ccc(Cl)cc4O3)CC2)c1 [Example 25, (S)-N-{[1-(7-Chloro-1,4-benzodioxan-2-ylmethyl)-4-piperidyl]methyl}-3-nitrobenzenesulphonamide] | 119 nM | 91% | –
4 | Cc1c([N+](=O)[O-])cc(S(=O)(=O)NCC2CCN(C[C@H]3COc4ccc(Cl)cc4O3)CC2)cc1[N+](=O)[O-] [Example 26, (S)-N-{[1-(7-Chloro-1,4-benzodioxan-2-ylmethyl)-4-piperidyl]methyl}-4-methyl-3,5-dinitrobenzenesulphonamide] | – | 88% | 87%
5 | COc1ccc(Cl)cc1S(=O)(=O)NCC1CCN(C[C@H]2COc3ccc(Cl)cc3O2)CC1 [Example 27, (S)-5-Chloro-N-{[1-(7-chloro-1,4-benzodioxan-2-ylmethyl)-4-piperidyl]methyl}-2-methoxybenzenesulphonamide] | 351 nM | 68% | –
6 | O=S(=O)(NCC1CCN(C[C@H]2COc3ccc(Cl)cc3O2)CC1)c1cccc(C(F)(F)F)c1 [Example 28, (S)-N-{[1-(7-Chloro-1,4-benzodioxan-2-ylmethyl)-4-piperidyl]methyl}-3-trifluoromethylbenzenesulphonamide] | 352 nM | 68% | –
7 | O=S(=O)(NCC1CCN(C[C@H]2COc3ccc(Cl)cc3O2)CC1)c1ccc(OC(F)(F)F)cc1 [Example 29, (S)-N-{[1-(7-Chloro-1,4-benzodioxan-2-ylmethyl)-4-piperidyl]methyl}-4-trifluoromethoxybenzenesulphonamide] | 357 nM | 67% | –
8 | O=S(=O)(NCC1CCN(C[C@H]2COc3ccc(Cl)cc3O2)CC1)c1ccc2ccccc2c1 [Example 30, (S)-N-{[1-(7-Chloro-1,4-benzodioxan-2-ylmethyl)-4-piperidyl]methyl}-2-naphthalenesulphonamide] | 241 nM | 65% | –
9 | O=S(=O)(NCC1CCN(C[C@H]2COc3ccc(Cl)cc3O2)CC1)c1ccccc1 [Example 34, (S)-N-{[1-(7-Chloro-1,4-benzodioxan-2-ylmethyl)-4-piperidyl]methyl}benzene-sulphonamide] | 88 nM | 87% | –
10 | O=S(=O)(NCC1CCN(C[C@H]2COc3ccc(Cl)cc3O2)CC1)c1cc(Br)ccc1Br [Example 36, (S)-2,5-Dibromo-N-{[1-(7-Chloro-1,4-benzodioxan-2-ylmethyl)-4-piperidyl]methyl}-benzenesulphonamide] | 487 nM | 68% | –
11 | O=S(=O)(NCC1CCN(C[C@H]2COc3ccc(Cl)cc3O2)CC1)c1c(F)c(Br)cc(F)c1Br [Example 39, (S)-2,5-Dibromo-N-{[1-(7-chloro-1,4-benzodioxan-2-ylmethyl)-4-piperidyl]methyl}-3,6-difluorobenzenesulphonamide] | 438 nM | 98% | –

The remaining lines, values ahead:

Row | Ki [1] | inhibition at 1 µM [2] | inhibition at 1 µM [1] | SMILES
12 | 249 nM | 71% | – | Cc1cc(C)c(S(=O)(=O)NCC2CCN(C[C@H]3COc4ccc(Cl)cc4O3)CC2)c(C)c1 [Example 21, (S)-N-{[1-(7-Chloro-1,4-benzodioxan-2-ylmethyl)-4-piperidyl]methyl}-2,4,6-trimethylbenzenesulphonamide]
13 | 317 nM | 59% | – | Cc1c(C)c(C)c(S(=O)(=O)NCC2CCN(C[C@H]3COc4ccc(Cl)cc4O3)CC2)c(C)c1C [Example 22, (S)-N-{[1-(7-Chloro-1,4-benzodioxan-2-ylmethyl)-4-piperidyl]methyl}-2,3,4,5,6-pentamethylbenzenesulphonamide]
14 | 215 nM | 60% | – | O=S(=O)(NCC1CCN(C[C@H]2COc3ccc(Cl)cc3O2)CC1)c1cccc2ccccc12 [Example 31, (S)-N-{[1-(7-Chloro-1,4-benzodioxan-2-ylmethyl)-4-piperidyl]methyl}-1-naphthalenesulphonamide]
15 | 285 nM | 87% | – | COc1ccc(OC)c(S(=O)(=O)NCC2CCN(C[C@H]3COc4ccc(Cl)cc4O3)CC2)c1 [Example 32, (S)-N-{[1-(7-Chloro-1,4-benzodioxan-2-ylmethyl)-4-piperidyl]methyl}-2,5-dimethoxybenzenesulphonamide]
16 | 301 nM | 91% | – | Cc1ccc(S(=O)(=O)NCC2CCN(C[C@H]3COc4ccc(Cl)cc4O3)CC2)cc1 [Example 33, (S)-N-{[1-(7-Chloro-1,4-benzodioxan-2-ylmethyl)-4-piperidyl]methyl}-4-methylbenzenesulphonamide]
17 | 328 nM | 81% | – | Cc1ccc(F)cc1S(=O)(=O)NCC1CCN(C[C@H]2COc3ccc(Cl)cc3O2)CC1 [Example 35, (S)-N-{[1-(7-Chloro-1,4-benzodioxan-2-ylmethyl)-4-piperidyl]methyl}-5-fluoro-2-methylbenzenesulphonamide]
18 | 85 nM | 87% | – | O=[N+]([O-])c1ccccc1S(=O)(=O)NCC1CCN(C[C@H]2COc3ccc(Cl)cc3O2)CC1 [Example 37, (S)-N-{[1-(7-Chloro-1,4-benzodioxan-2-ylmethyl)-4-piperidyl]methyl}-2-nitro-benzenesulphonamide]
19 | 330 nM | 95% | – | O=S(=O)(NCC1CCN(C[C@H]2COc3ccc(Cl)cc3O2)CC1)c1ccc(F)c(F)c1F [Example 38, (S)-N-{[1-(7-Chloro-1,4-benzodioxan-2-ylmethyl)-4-piperidyl]methyl}-2,3,4-trifluorobenzenesulphonamide]
20 | – | 93% | 107% | O=S(=O)(NCC1CCN(C[C@H]2COc3ccc(Cl)cc3O2)CC1)c1ccccc1F [Example 40, (S)-(-)-N-{[1-(7-Chloro-1,4-benzodioxan-2-ylmethyl)-4-piperidyl]methyl}-2-fluorobenzenesulphonamide]
